Measured values taken from PubChem BioAssay (NCI).
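GI50: concentration for 50% inhibition of growth. TGI marks complete inhibition of growth.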

Tests used:
Test in all cases: NCI tumour cell line growth inhibition, 384-well format
[1] = tested on: SR leukemia
[2] = tested on: CAKI-1 renal
[3] = tested on: NCI-H522 lung
[4] = tested on: HCC-2998 colon
[5] = tested on: MALME-3M melanoma
[6] = tested on: OVCAR-8 ovarian
[7] = tested on: HT29 colon
[8] = tested on: LOX IMVI melanoma
[9] = tested on: SW-620 colon
[10] = tested on: RPMI-8226 leukemia
[11] = tested on: UO-31 renal
[12] = tested on: UACC-257 melanoma
[13] = tested on: MOLT-4 leukemia

## C[C@@H](c1ccc2nccn2c1)n1nnc2ncc(-c3cnn(C)c3)nc21
[1]
  GI50: 43.3 µM
  TGI: > 100 µM
[2]
  GI50: > 51.5 µM
  TGI: > 100 µM
[3]
  GI50: > 75.5 µM
  TGI: > 100 µM
[4]
  GI50: > 100 µM
  TGI: > 100 µM
[5]
  GI50: > 100 µM
  TGI: > 100 µM
[6]
  GI50: > 100 µM
  TGI: > 100 µM
[7]
  GI50: > 100 µM
  TGI: > 100 µM
[8]
  GI50: > 65.9 µM
  TGI: > 100 µM
[9]
  GI50: > 100 µM
  TGI: > 100 µM
[10]
  GI50: > 68.8 µM
  TGI: > 100 µM
[11]
  GI50: > 100 µM
  TGI: > 100 µM
[12]
  GI50: > 100 µM
  TGI: > 100 µM
[13]
  GI50: 51.5 µM
  TGI: > 100 µM
